The source of these data is the Biogen ADME set (Fang et al. 2023).

For the data set the following is noted: for aqueous solubility: pH 6.8.

Structures are written as SMILES. ≈ marks a conversion by molar mass, not a printed value.

Usually aqueous solubility stands for how much of the substance goes into solution per volume. With `O=C(CN1CCCN(c2ccc(C(F)(F)F)cn2)CC1)Nc1cccc(F)c1`, the MDR1-MDCK efflux ratio is 0.796; the intrinsic clearance, human liver microsomes came out at 120 mL/min/kg; the intrinsic clearance, rat liver microsomes amounted to 967 mL/min/kg; the aqueous solubility amounted to 30.5 µg/mL (≈ 76.9 µM).

With `Cn1c(=O)n(Cc2cccc(OC(F)F)c2)c2cnccc21`, the MDR1-MDCK efflux ratio is 1.34; the intrinsic clearance, human liver microsomes is 10.4 mL/min/kg; the intrinsic clearance, rat liver microsomes was 209 mL/min/kg; the aqueous solubility amounted to 49.1 µg/mL (≈ 161 µM).

In the case of `O=c1c2c(Cl)ccc(Cl)c2ncn1Cc1cc(O)ncn1`, the intrinsic clearance, human liver microsomes is at most 4.74 mL/min/kg and the intrinsic clearance, rat liver microsomes was at most 10.7 mL/min/kg.

In the case of `Fc1cc(-c2noc(C3CCN(C4CC4)CC3)n2)cc(F)c1F`, the intrinsic clearance, human liver microsomes was 75 mL/min/kg and the intrinsic clearance, rat liver microsomes was 591 mL/min/kg.

For the compound `COc1cccc2c1OC(C)(C)[C@@H]1C[C@H]3CNCC[C@H]3O[C@@H]21`, the MDR1-MDCK efflux ratio was found to be 17.1; the intrinsic clearance, human liver microsomes was at most 4.74 mL/min/kg; the intrinsic clearance, rat liver microsomes was determined as 51.5 mL/min/kg; the aqueous solubility was determined as 53.4 µg/mL (≈ 176 µM).

Compound `O=C1NCN(c2ccccc2)C12CCN(CCCOc1ccc(F)cc1)CC2` yielded an intrinsic clearance, human liver microsomes of 74.3 mL/min/kg; an intrinsic clearance, rat liver microsomes of 548 mL/min/kg; an aqueous solubility of 50.9 µg/mL (≈ 133 µM).

Turning to `Cn1cccc(C(=O)NCc2nc(C(C)(C)C)no2)c1=O`, the MDR1-MDCK efflux ratio was found to be 1.44; the intrinsic clearance, human liver microsomes is at most 4.74 mL/min/kg; the intrinsic clearance, rat liver microsomes worked out at 137 mL/min/kg.

On to `CC(C)Oc1ccc(C2(C(=O)NC3CCS(=O)(=O)CC3)CCCC2)cc1`, for which the MDR1-MDCK efflux ratio stood at 37.9; the intrinsic clearance, human liver microsomes was 15.7 mL/min/kg; the intrinsic clearance, rat liver microsomes worked out at 210 mL/min/kg.

Consider `Cc1ccc(-c2nc(NCc3ccco3)ncc2-c2cc(C)no2)cn1`, for which the MDR1-MDCK efflux ratio amounted to 0.989; the intrinsic clearance, human liver microsomes is 87.5 mL/min/kg; the intrinsic clearance, rat liver microsomes worked out at 492 mL/min/kg; the aqueous solubility is 10.3 µg/mL (≈ 29.7 µM).

With `Cc1ncc(C)n2nc([C@@H]3C[C@H]3c3nc4c5cccnc5ccn4c3C)nc12`, the MDR1-MDCK efflux ratio was found to be 1.4; the intrinsic clearance, human liver microsomes amounted to 16.1 mL/min/kg; the intrinsic clearance, rat liver microsomes turned out to be 82.1 mL/min/kg.

`CN1CCN(S(=O)(=O)c2ccc(-c3cnc(N)c(C(=O)Nc4cccnc4)n3)cc2)CC1`: the MDR1-MDCK efflux ratio turned out to be 72.4; the fraction unbound, human plasma came out at 0.12; the fraction unbound, rat plasma came to 0.0823; the intrinsic clearance, human liver microsomes came out at 124 mL/min/kg. Besides, the intrinsic clearance, rat liver microsomes amounted to 672 mL/min/kg.

`COc1ccccc1-c1nn(-c2ccccc2)cc1CO`: the MDR1-MDCK efflux ratio was 0.418; the intrinsic clearance, human liver microsomes was determined as 42.1 mL/min/kg; the intrinsic clearance, rat liver microsomes amounted to 374 mL/min/kg; the aqueous solubility came to 19.7 µg/mL (≈ 70.4 µM).

For `Nc1cncc(-c2ccc(CN3CCCCC3)cc2)c1`, the MDR1-MDCK efflux ratio was determined as 0.743; the intrinsic clearance, human liver microsomes amounted to 40.7 mL/min/kg; the intrinsic clearance, rat liver microsomes came to 56.3 mL/min/kg; the aqueous solubility was found to be 26 µg/mL (≈ 97.1 µM).

Compound `Cc1cc(Nc2cc(N3CCN(C)CC3)nc(/C=C/c3ccccc3)n2)n[nH]1` came in with an aqueous solubility of 0.2 µg/mL (≈ 0.533 µM).

In the case of `COc1ccc(OC)c(-c2cc(C(=O)N3CCCN(C(C)=O)CC3)no2)c1`, the MDR1-MDCK efflux ratio was 4.72; the intrinsic clearance, human liver microsomes was found to be 12.9 mL/min/kg; the intrinsic clearance, rat liver microsomes turned out to be 214 mL/min/kg; the aqueous solubility came out at 59.7 µg/mL (≈ 160 µM).

In turn, `Cc1ccnc(NC(=O)C2CCN(CCc3cccs3)CC2)c1` came in with an aqueous solubility of 65.5 µg/mL (≈ 199 µM).

Consider `CCN(Cc1nc(C)no1)C(=O)c1cc(C)c(C)n(C)c1=O`, for which the MDR1-MDCK efflux ratio turned out to be 82.6; the intrinsic clearance, human liver microsomes was at most 4.74 mL/min/kg; the intrinsic clearance, rat liver microsomes is at most 10.7 mL/min/kg.

`CN(C)c1nc(-c2cccc(-c3ccccc3)c2)n[nH]1` gave an aqueous solubility of 0.81 µg/mL (≈ 3.06 µM).

`Cc1cc(C(=O)N(C)CC2CCN(CCO)CC2)cc(C)n1`: the MDR1-MDCK efflux ratio is 1.95; the intrinsic clearance, human liver microsomes worked out at 7.92 mL/min/kg; the intrinsic clearance, rat liver microsomes is 29.2 mL/min/kg.

Consider `CN(Cc1ccc(CO)cc1)Cc1cc(F)c(F)c(F)c1`, for which the MDR1-MDCK efflux ratio was determined as 0.425; the intrinsic clearance, human liver microsomes was 54 mL/min/kg; the intrinsic clearance, rat liver microsomes turned out to be 371 mL/min/kg.

The compound `CC(=O)N(CC(N)=O)c1ccc(C)cc1` came in with an intrinsic clearance, human liver microsomes of 5.04 mL/min/kg and an intrinsic clearance, rat liver microsomes of 42.8 mL/min/kg.

On to `CN1CCc2nc(C(=O)N[C@H]3C[C@@H](C(=O)N(C)C)CC[C@@H]3NC(=O)C(=O)Nc3ccc(Cl)cn3)sc2C1`, for which the MDR1-MDCK efflux ratio is 178; the intrinsic clearance, human liver microsomes was at most 4.74 mL/min/kg; the intrinsic clearance, rat liver microsomes is at most 10.7 mL/min/kg.

Turning to `Cc1cc(F)ccc1C1C(=O)NCCN1C(=O)c1ccc2nccn2c1` (stereo not drawn), the MDR1-MDCK efflux ratio was found to be 8.42; the fraction unbound, human plasma was determined as 0.604; the fraction unbound, rat plasma was found to be 0.893; the intrinsic clearance, human liver microsomes turned out to be 6 mL/min/kg. This compound also returned an intrinsic clearance, rat liver microsomes of 27.7 mL/min/kg and an aqueous solubility of 62.2 µg/mL (≈ 177 µM).

Consider `Cc1cc(C(=O)N(C)Cc2ccc(Br)cc2)no1`, for which the MDR1-MDCK efflux ratio was found to be 0.69; the intrinsic clearance, human liver microsomes stood at 92.8 mL/min/kg; the intrinsic clearance, rat liver microsomes amounted to 941 mL/min/kg; the aqueous solubility was found to be 64 µg/mL (≈ 207 µM).

`Fc1cccc(N[C@H]2CCCN[C@H]2Cc2ccccc2)c1` showed an intrinsic clearance, human liver microsomes of 61 mL/min/kg; an intrinsic clearance, rat liver microsomes of 658 mL/min/kg; an aqueous solubility of 42.6 µg/mL (≈ 150 µM).

As to `CCOC(=O)N1CCN(C(=O)c2ccc3c(c2)OCO3)CC1`, the MDR1-MDCK efflux ratio came to 0.82; the intrinsic clearance, human liver microsomes was at most 4.74 mL/min/kg; the intrinsic clearance, rat liver microsomes came out at 112 mL/min/kg; the aqueous solubility came to 53 µg/mL (≈ 173 µM).

In the case of `Cc1cccc(N2CCN(CCCCNC(=O)c3c(F)cccc3F)CC2)c1`, the MDR1-MDCK efflux ratio came out at 1.22; the intrinsic clearance, human liver microsomes came to 76.3 mL/min/kg; the intrinsic clearance, rat liver microsomes turned out to be 510 mL/min/kg.

Take `COc1ccc(C(=O)N2CCN(C(=O)/C=C/c3ccc(Br)cc3)CC2)cc1`: the MDR1-MDCK efflux ratio turned out to be 0.858.

Take `Cc1ccc(F)cc1NCc1csc(-c2cnn(C)c2)n1`: the intrinsic clearance, human liver microsomes was 40.2 mL/min/kg and the intrinsic clearance, rat liver microsomes was found to be 402 mL/min/kg.

With `CN(C(=O)CSC(C)(C)C)c1ccccc1C#N`, the MDR1-MDCK efflux ratio came out at 0.808; the intrinsic clearance, human liver microsomes was determined as 47.3 mL/min/kg; the intrinsic clearance, rat liver microsomes was determined as 687 mL/min/kg.

With `Cc1cc(NC(=O)C2CCN(c3ccncc3Cl)CC2)no1`, the MDR1-MDCK efflux ratio turned out to be 0.457; the intrinsic clearance, human liver microsomes came to 12.7 mL/min/kg; the intrinsic clearance, rat liver microsomes stood at 186 mL/min/kg; the aqueous solubility came to 29 µg/mL (≈ 90.4 µM).

As to `COc1cc(CN[C@@H]2CCC[C@H]2Cc2cc(C)no2)ccc1OC(C)C`, the intrinsic clearance, human liver microsomes turned out to be 66.8 mL/min/kg and the intrinsic clearance, rat liver microsomes worked out at 2380 mL/min/kg.

In turn, `COc1ccc(CN(C)c2ncncc2Br)cc1O` had an intrinsic clearance, human liver microsomes of 25.9 mL/min/kg; an intrinsic clearance, rat liver microsomes of 211 mL/min/kg; an aqueous solubility of 55.6 µg/mL (≈ 172 µM).

`COc1ccc(CCNCc2ccc(-c3ccccc3)o2)cc1OC`: the MDR1-MDCK efflux ratio is 0.979; the intrinsic clearance, human liver microsomes came out at 63.8 mL/min/kg; the intrinsic clearance, rat liver microsomes was determined as 1090 mL/min/kg; the aqueous solubility was found to be 74.3 µg/mL (≈ 220 µM).

Regarding `Cc1ccc(CN)c(-n2cc(Cl)cn2)n1`, the MDR1-MDCK efflux ratio came out at 0.396; the intrinsic clearance, human liver microsomes is at most 4.74 mL/min/kg; the intrinsic clearance, rat liver microsomes was found to be 27.4 mL/min/kg.

With `Cc1ccc(F)c(-c2noc(N)c2C)c1`, the MDR1-MDCK efflux ratio is 0.523; the intrinsic clearance, human liver microsomes amounted to 19.6 mL/min/kg; the intrinsic clearance, rat liver microsomes is 293 mL/min/kg.

As to `CCc1nccn1Cc1nc(N)nc(N(C)C)n1`, the MDR1-MDCK efflux ratio amounted to 18.5; the intrinsic clearance, human liver microsomes is at most 4.74 mL/min/kg; the intrinsic clearance, rat liver microsomes came out at 17.3 mL/min/kg.

Take `COc1ccc2nc(NCc3cnn(C)c3)ccc2c1`: the MDR1-MDCK efflux ratio was 0.532; the intrinsic clearance, human liver microsomes came to 28.5 mL/min/kg; the intrinsic clearance, rat liver microsomes was 88.6 mL/min/kg; the aqueous solubility came out at 34.8 µg/mL (≈ 130 µM).

With `Cc1ccc2c(C(=O)N(C)C)cc(-c3cnc(C(C)C)nc3)nc2c1C`, the MDR1-MDCK efflux ratio came to 1.95; the intrinsic clearance, human liver microsomes was 16.7 mL/min/kg; the intrinsic clearance, rat liver microsomes was 836 mL/min/kg; the aqueous solubility is 2.43 µg/mL (≈ 6.97 µM).

In the case of `Cc1nc(-c2ccccc2)c(C(=O)Nc2cc(Cl)cc(Cl)c2)s1`, the intrinsic clearance, human liver microsomes was determined as 25.7 mL/min/kg and the intrinsic clearance, rat liver microsomes came out at 230 mL/min/kg.

In turn, `Cc1cc(CN(C)C(=O)C(=O)Nc2ccc(F)c(C)c2)no1` came in with an intrinsic clearance, human liver microsomes of 13.7 mL/min/kg and an intrinsic clearance, rat liver microsomes of 270 mL/min/kg.

Consider `O=c1[nH]c2ccccc2n1C1CCN(Cc2nc(-c3ccsc3)no2)CC1`, for which the MDR1-MDCK efflux ratio turned out to be 3.73; the intrinsic clearance, human liver microsomes worked out at 16.3 mL/min/kg; the intrinsic clearance, rat liver microsomes is 263 mL/min/kg; the aqueous solubility is 5.8 µg/mL (≈ 15.2 µM).

In the case of `CC(=O)N(c1ccc(C)cc1)c1nc(Cn2ccnc2)cs1`, the MDR1-MDCK efflux ratio was determined as 2.87; the intrinsic clearance, human liver microsomes was 31.9 mL/min/kg; the intrinsic clearance, rat liver microsomes came to 210 mL/min/kg; the aqueous solubility was found to be 43.6 µg/mL (≈ 140 µM).

Consider `CCOc1ccccc1NC(=O)C(=O)NCc1ccccc1F`, for which the aqueous solubility is 0.34 µg/mL (≈ 1.07 µM).

Compound `Nc1ccc2c(ccn2CC(=O)N2CCOCC2)c1` had an intrinsic clearance, human liver microsomes of at most 4.74 mL/min/kg; an intrinsic clearance, rat liver microsomes of at most 10.7 mL/min/kg; an aqueous solubility of 50.5 µg/mL (≈ 195 µM).

With `CN(Cc1ccc(N)nc1)c1ncccn1`, the MDR1-MDCK efflux ratio turned out to be 0.62; the intrinsic clearance, human liver microsomes is at most 4.74 mL/min/kg; the intrinsic clearance, rat liver microsomes turned out to be 22.8 mL/min/kg; the aqueous solubility is 28.5 µg/mL (≈ 132 µM).

In the case of `O=C(NCCc1ccc2c(c1)OCO2)C1CCCC1`, the MDR1-MDCK efflux ratio came to 0.69; the intrinsic clearance, human liver microsomes was 27.6 mL/min/kg; the intrinsic clearance, rat liver microsomes came to 600 mL/min/kg; the aqueous solubility is 42.1 µg/mL (≈ 161 µM).

With `c1ccc2nc(OC3CCNCC3)cnc2c1`, the intrinsic clearance, human liver microsomes was at most 4.74 mL/min/kg and the intrinsic clearance, rat liver microsomes came to 183 mL/min/kg.
